Test results taken from publication doi:10.1101/641969v1 (biorxiv, 2019).

Tests used:
PmCntL = target: T1, PmCntL (Paenibacillus mucilaginosus, UniProt H6NF62); assay: TLC of products from carboxyl-[…]-labeled SAM; type: biochemical; settings: 10 µM D-histidine, 2.5 µM [14C]SAM, pH 9, 28 °C, 30 min
T1 sequence (H6NF62 1-276): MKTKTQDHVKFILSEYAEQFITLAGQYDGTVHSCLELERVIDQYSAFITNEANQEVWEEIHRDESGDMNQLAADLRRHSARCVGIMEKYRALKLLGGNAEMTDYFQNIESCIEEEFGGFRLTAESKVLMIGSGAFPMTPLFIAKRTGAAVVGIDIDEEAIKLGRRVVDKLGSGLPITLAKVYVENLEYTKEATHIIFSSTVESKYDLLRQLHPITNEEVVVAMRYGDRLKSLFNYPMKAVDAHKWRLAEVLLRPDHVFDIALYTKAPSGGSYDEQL

PmCntM = target: T2, PmCntM (Paenibacillus mucilaginosus, UniProt H6NF63); assay: NADPH oxidation at […] nm, initial rates; type: biochemical
T2 sequence (H6NF63 1-440): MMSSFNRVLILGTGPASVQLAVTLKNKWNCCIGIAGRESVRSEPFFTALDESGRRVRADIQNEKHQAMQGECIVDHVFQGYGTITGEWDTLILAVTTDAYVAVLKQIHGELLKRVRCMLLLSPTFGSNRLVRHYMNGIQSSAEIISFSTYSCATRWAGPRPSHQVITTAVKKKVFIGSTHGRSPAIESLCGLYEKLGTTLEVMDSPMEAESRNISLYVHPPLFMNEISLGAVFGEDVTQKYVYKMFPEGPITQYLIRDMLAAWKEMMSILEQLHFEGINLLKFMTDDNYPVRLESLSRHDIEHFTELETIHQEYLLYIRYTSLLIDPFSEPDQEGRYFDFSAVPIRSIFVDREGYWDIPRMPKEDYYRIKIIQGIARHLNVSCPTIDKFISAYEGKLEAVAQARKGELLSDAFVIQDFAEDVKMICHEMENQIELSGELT

PaCntM [1] = target: T3, PaCntM (Pseudomonas aeruginosa, UniProt Q9HUX5); assay: NADH oxidation at […] nm, initial rates, Michaelis-Menten fit; settings: 0.2 mM NADH, 1 mM α-ketoglutarate, pH 8, 28 °C
T3 sequence (Q9HUX5 1-433): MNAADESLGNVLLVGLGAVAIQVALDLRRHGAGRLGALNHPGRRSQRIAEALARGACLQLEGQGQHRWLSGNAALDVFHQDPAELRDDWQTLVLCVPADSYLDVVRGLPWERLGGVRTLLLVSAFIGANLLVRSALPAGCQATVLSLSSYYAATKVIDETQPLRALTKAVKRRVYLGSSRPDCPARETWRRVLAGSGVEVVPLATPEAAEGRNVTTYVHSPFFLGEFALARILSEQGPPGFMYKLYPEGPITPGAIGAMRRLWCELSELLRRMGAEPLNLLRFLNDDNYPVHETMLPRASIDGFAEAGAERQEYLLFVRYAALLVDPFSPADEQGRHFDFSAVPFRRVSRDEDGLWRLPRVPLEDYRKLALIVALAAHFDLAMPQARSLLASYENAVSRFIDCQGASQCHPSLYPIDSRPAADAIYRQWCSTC

SaCntM [2] = target: T4, SaCntM (Staphylococcus aureus, UniProt A0A0H3JT80); assay: NADPH oxidation at […] nm, initial rates, Michaelis-Menten fit; type: biochemical; settings: 0.2 mM NADPH, 1 mM pyruvate, pH 7, 28 °C
T4 sequence (A0A0H3JT80 1-433): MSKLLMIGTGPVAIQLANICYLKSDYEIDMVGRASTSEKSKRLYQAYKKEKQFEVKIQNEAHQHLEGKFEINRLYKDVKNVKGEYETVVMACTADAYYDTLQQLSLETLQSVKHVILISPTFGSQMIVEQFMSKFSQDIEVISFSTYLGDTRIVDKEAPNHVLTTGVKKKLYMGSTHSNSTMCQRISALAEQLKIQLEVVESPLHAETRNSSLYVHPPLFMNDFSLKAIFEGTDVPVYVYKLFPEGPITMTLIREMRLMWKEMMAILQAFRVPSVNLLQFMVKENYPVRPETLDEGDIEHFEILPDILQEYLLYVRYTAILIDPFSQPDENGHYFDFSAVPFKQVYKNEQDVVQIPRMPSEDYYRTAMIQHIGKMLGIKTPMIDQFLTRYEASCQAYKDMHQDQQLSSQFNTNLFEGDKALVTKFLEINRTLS

SaCntM [3] = target: T4, SaCntM; assay: NADPH oxidation at […] nm, initial rates, substrate inhibition model; type: biochemical; settings: 0.2 mM NADPH, 1 mM pyruvate, pH 7, 28 °C
PaCntM [4] = target: T3, PaCntM; assay: NADH oxidation at […] nm, initial rates, substrate inhibition model; type: biochemical; settings: 0.2 mM NADH, 1 mM α-ketoglutarate, pH 8, 28 °C
SaCntM [5] = target: T4, SaCntM; assay: NADPH oxidation at […] nm, initial rates, substrate inhibition model; type: biochemical; settings: 0.2 mM NADPH, 1 mM pyruvate, pH 7, 28 °C; remark: listed apart in the source
PaCntM [6] = target: T3, PaCntM; assay: NADH oxidation at […] nm, initial rates, substrate inhibition model; type: biochemical; settings: 0.2 mM NADH, 1 mM α-ketoglutarate, pH 8, 28 °C; remark: listed apart in the source

TLC of products from carboxyl-[14C]-labeled SAM (PmCntL)	SMILES	Km (PmCntM) [µM]	Km (PaCntM [1]) [µM]	Km (SaCntM [2]) [µM]	Ki (SaCntM [3]) [mM]	Ki (PaCntM [4]) [mM]	Km (SaCntM [5]) [µM]	Km (PaCntM [6]) [µM]
PmCntL uses D-His and not L-His	N[C@H](Cc1c[nH]cn1)C(=O)O [D-histidine]							
	N[C@@H](CCN[C@H](Cc1c[nH]cn1)C(=O)O)C(=O)O [xNA]	12 ± 1	54 ± 20	23 ± 3				
	N[C@@H](CCN[C@@H](Cc1c[nH]cn1)C(=O)O)C(=O)O [yNA]	7 ± 1			2.3 ± 0.8	2.4 ± 1.0	47 ± 9	21 ± 7
